Active and inactive are the calls of the source. The calls are words filed in the database; no cut-off is given here.
Key:
[1] = test system: Radical scavenging activity; assay: Antioxidant activity assessed as DPPH free radical scavenging activity over 30 mins by spectrophotometry; assay type: functional
[2] = Chemical stability of the compound in PBS buffer at 1 ug/ml after 24 hrs by fluorescence assay in presence of 0.3% H2O2; assay type: physicochemical
[3] = Cytotoxicity against rat differentiated PC12 cells assessed as cell viability at <= 10 ug/ml after 15 hrs by MTS assay; assay type: cell-based; settings: pc-12, 15 h
[4] = test system: PC-12; assay: Antioxidant activity in rat differentiated PC12 cells assessed as inhibition of H2O2-induced cell death after 15 hrs by MTS assay; assay type: functional, cell-based

| Structure (SMILES) | Activity [1] | Stability [2] | Activity [3] | Activity [4] |
| --- | --- | --- | --- | --- |
| CC(=O)c1ccc(/C=C/c2ccc(C(C)=O)cc2)cc1 | inactive | Unstable | Non-toxic | – |
| CC(O)c1ccc(/C=C/c2ccc(C(C)O)cc2)cc1 (stereo not given) | inactive | – | Non-toxic | inactive |
| Oc1ccc(/C=C/c2ccc(O)cc2)cc1 | – | – | – | Active |
| N#Cc1ccc(/C=C/c2ccc(C#N)cc2)cc1 | inactive | Unstable | Non-toxic | – |
| Nc1ccc(/C=C/c2ccc(N)cc2)cc1 | Active | – | Non-toxic | Active |
| C(=C\c1ccccc1)/c1ccccc1 | inactive | – | Non-toxic | – |

Source: ChEMBL document CHEMBL3085770, “The functional group on (E)-4,4'-disubstituted stilbenes influences toxicity and antioxidative activity in differentiated PC-12 cells” (Bioorg Med Chem Lett, 2013)
